Measurements published in patent US20250205249A1, “COMPOSITION FOR USE IN ENHANCING, BOOSTING, RESTORING AND/OR PREVENTING THE DECLINE OF COGNITIVE FUNCTIONS, ADJUVANT COMPOSITION, METHOD FOR USING THE COMPOSITION OR ADJUVANT COMPOSITION, AND KIT HAVING THE COMPOSITION OR ADJUVANT COMPOSITION” (Instytut Badawczy Innowacyjno Rozwojowy "Biotomed" Sp. Z O.O, priority 2023, published 2025).
Like-named read-outs stand apart in the source and are kept apart here. Marks after values point to notes of the source that are not given here.

How the values were obtained:
[1] = system: differentiated SH-SY5Y cells; test: Neuroprotection against H2O2, preincubation variant; assay type: cell-based, human
Text: (§1) Human neuroblastoma cells of the SH-SY5Y lineage were chosen to perform the experiment.
(§2) Based on the literature review and research work, hydrogen peroxide H2O2 was chosen as the neurotoxin.

[2] = system: differentiated SH-SY5Y neuroblastoma cells; test: Neuroprotection against H2O2, coincubation variant; assay type: cell-based, human; details: for Increase in viability relative to cells treated with hydrogen peroxide: 24 h co-incubation, H2O2 at EC50; for Improvement in cell viability relative to the positive control: coincubation with H2O2
Text: as §1, §2

[3] = system: differentiated neuroblastoma cells (SH-SY5Y); test: Neuroprotection against H2O2, postincubation variant; assay type: cell-based, human; details: 1 h and 3 h H2O2 at EC50, then 24 h post-incubation
Protocol: as §1
Two time variants of incubation with hydrogen peroxide in differentiated neuroblastoma culture, i.e. 1 h and 3 h, were used in post-incubation.

[4] = system: differentiated SH-SY5Y neuroblastoma cells; test: Early apoptosis of H2O2-treated cells, coincubation variant; assay type: cell-based, human; details: 24 h coincubation with H2O2
Protocol: A coincubation variant was used, i.e. simultaneous administration of betulin or a reference drug and H2O2. H2O2 concentrations were EC50 or EC80 (resulting in a 50% and 80% reduction in cell viability in viability assays). Betulin concentrations were 1 μM and 5 μM, while NAC concentrations were 0.1 mM and 1 mM. The coincubation time of the test substances with H2O2 was 24 h.

[5] = system: rats with Alzheimer-like neurodegeneration; test: Beam walking test (motor coordination); assay type: in vivo, Wistar rats; details: 5th day of testing, AlCl3 rats
Protocol: (§3) The study was conducted on Wistar rats weighing 220-250 g. All animals were subjected to two weeks of observation prior to the experiment to exclude infection. Rats were housed in standard cages, 5 individuals in each. The animals stayed in a room with a temperature of 22±2° C., air humidity 60-70% and in natural lighting (12/12 in a day/night cycle).
(§4) The Alzheimer's disease model was induced by administering aluminum chloride AICl3 (200 mg/kg body weight, i.g.) to the animals for 120 days. […] Animals were assigned to groups: control group receiving saline (sham operation), group with AlCl3 without treatment and group with AlCl3 receiving betulin (100 mg/kg/day, i.g., within the last 50% of the days of the experiment) and betulin in the complex with cyclodextrin (100 mg/kg/day, i.g., in the last 50% of the days of the experiment). Betulin or betulin in a complex with cyclodextrin was administered orally with an intragastric probe in a 2% starch emulsion, reflecting the composition of the finished preparation given in the examples of use.

[6] = system: oxidative stress parameters (GSH, GSSG, G6PD, glutathione reductase, glutathione-S-transferase, GPO); test: Glutathione content and antioxidant enzymes activities in brain hemispheres during Al-intoxication; assay type: in vivo, Wistar rats
Text: Influence of Betulin on Oxidative Stress Parameters in Rats with Alzheimer-Like Neurodegeneration

[7] = system: TNFα; details: 100 mg/kg/day, i.g.
Protocol: as §3
(§5) The Alzheimer's disease model was induced by administering aluminum chloride AICl3 (200 mg/kg body weight, i.g.) to the animals for 120 days. […] Animals were assigned to groups: control group receiving saline (sham operation), group with AlCl3 without treatment and group with AlCl3 receiving betulin (100 mg/kg/day, i.g., within the last 50% of the days of the experiment) and betulin in the complex with cyclodextrin (100 mg/kg/day, i.g., in the last 50% of the days of the experiment).
(§6) On the last day of the experiment, the animals were anaesthetized. Brains were quickly collected and then divided into different areas. The entire procedure was carried out in a cold room (+4° C.) on ice, and the samples were frozen in liquid nitrogen and stored in an ultra-low temperature refrigerator for further analysis.
(§7) In order to measure rat brain damage caused by aluminum chloride, biochemical determinations were carried out on the collected brain tissue fragments.

[8] = system: APLP2; details: 100 mg/kg/day, i.g.
Protocol: as §3, §5, §6, §7

[9] = system: Aβ1-42 protein; details: 100 mg/kg/day, i.g.
Protocol: as §3, §5, §6, §7

[10] = system: rats with Alzheimer-like neurodegeneration; details: Morris water maze, 5th day of testing; AlCl3 rats
Protocol: as §3, §4

[11] = system: differentiated SH-SY5Y neuroblastoma cells; details: XTT assay, tested 1-30 μM
Text: as §1

[12] = cited from earlier work; for Total daily oral dose may reach: as dietary supplement (HP-β-cyclodextrin: as oral pharmaceutical); for NOAEL (No Observed Adverse Effect Level): oral intake
[13] = system: renal tubular epithelium; details: cited from earlier work
[14] = brain hemispheres, Al-intoxication
[15] = rat hippocampal homogenate, AlCl3 model

Which “Protective effect against H2O2 (in words)” value ([1]; 24 h preincubation, NAC 2.5 mM to 0.01 mM, H2O2 at EC50) does the source give for `CC(=O)N[C@@H](CS)C(=O)O` [NAC, N-acetyl-L-cysteine, reference compound] here?
The value was “statistically significant (####p<0.001) protective effect on cells (no decrease in viability)”.

What about the “Increase in viability relative to cells treated with hydrogen peroxide” value ([2]; NAC 0.01 mM) of the same compound?
The value was 12%.

And the “Increase in viability relative to cells treated with hydrogen peroxide” value ([2]; NAC 0.1 mM)?
Its value is 40%.

And the “Increase in viability relative to cells treated with hydrogen peroxide” value ([2]; NAC 1 mM)?
Its value is 54%.

And the “Protective effect after H2O2 treatment (in words)” value [3]?
Its value is “induced a protective effect in a NAC concentration-dependent manner”.

And the “Induction of early apoptosis (percentage of apoptotic cells)” value ([4]; NAC 0.1 mM)?
Its value is 12.2%.

What about the “Induction of early apoptosis (percentage of apoptotic cells)” value ([4]; NAC 1 mM) of the same compound?
The value was 12.0%.

Which “Percent of successful trials” value [5] does the source give for `C=C(C)[C@@H]1CC[C@]2(CO)CC[C@]3(C)[C@H](CC[C@@H]4[C@@]5(C)CC[C@H](O)C(C)(C)[C@@H]5CC[C@]43C)[C@@H]12` [betulin] here?
Its value is 100^b %.

What about the “Time to reach the shelter” value [5] of the same compound?
Its value is 18.6 ± 3.6^ab seconds.

And the “Effect on GSH, GR and GSTs activity (in words)” value ([6]; animals with induced AD)?
Its value is “significant increase in the activity of all enzymes”.

And the “Effect on GSSG, G6PD and GPO activity (in words)” value ([6]; animals with induced AD)?
Its value is “significant decrease in the activity of these enzymes”.

And the G6PD [6, 14]?
Its G6PD is 28.61 ± 1.62^b nmol NADPH/min/mg protein.

And the GPO [6, 14]?
Its GPO is 33.63 ± 2.09^b umol GSH/min/mg protein.

What about the GSH [6, 14] of the same compound?
Its GSH is 26.09 ± 2.19^b nmol/mg protein.

What about the GSSG [6, 14] of the same compound?
Its GSSG is 0.112 ± 0.002^b nmol/mg protein.

And the Glutathione reductase [6, 14]?
The Glutathione reductase was 11.59 ± 1.39 nmol NADPH/min/mg protein.

What about the Glutathione-S-transferase [6, 14] of the same compound?
Its Glutathione-S-transferase is 129.90 ± 10.45^b nmol CDNB/min/mg protein.

And the “Protective effect against H2O2 (in words)” value ([1]; betulin 1, 2, 5 and 10 μM, toxin at EC50)?
Its value is “statistically significant protective effect”.

What about the “Protective effect against H2O2 (in words)” value ([1]; betulin 15 and 20 μM) of the same compound?
The value was “no protective effect”.

And the “Improvement in cell viability relative to the positive control” value ([2]; betulin 1 μM)?
Its value is 27%.

What about the “Improvement in cell viability relative to the positive control” value ([2]; betulin 5 μM) of the same compound?
Its value is 18%.

What about the “Protective effect after H2O2 treatment (in words)” value [3] of the same compound?
The value was “no increase in viability relative to the positive control”.

What about the “Percentage of apoptotic cells” value ([4]; betulin 1 μM) of the same compound?
The value was 2.7%.

And the “Percentage of apoptotic cells” value ([4]; betulin 5 μM)?
The value was 2.5%.

What about the “Effect on TNFα concentration in hippocampal homogenates (in words)” value [7] of the same compound?
The value was “reduced the concentration of TNFα”.

What about the TNF-α [7, 15] of the same compound?
Its TNF-α is 5.88 ± 0.39 ^b pg/mg.

What about the “Effect on APLP2 concentration in hippocampal homogenates (in words)” value [8] of the same compound?
Its value is “reduced the concentration of APLP2”.

And the APLP2 ([8]; rat brain hippocampus homogenate, AlCl3 model)?
Its APLP2 is 588.1 ± 36.4^ab pg/100 mg.

What about the “Effect on β-amyloid concentration in hippocampal homogenates (in words)” value [9] of the same compound?
Its value is “reduced the concentration of β-amyloid”.

And the “Protein Aβ1-42” value [9, 15]?
Its value is 83.25 ± 6.40^ab pg/100 mg.

And the “Time spent in a target quadrant” value [10]?
The value was 26 ± 8^ab seconds.

And the “Time to reach the platform” value [10]?
The value was 38 ± 7^b seconds.

And the “Concentration above which a cytotoxic effect is induced (viability below the 70% threshold)” value [11]?
Its value is greater than 20 µM.

With `OC[C@H]1O[C@@H]2O[C@H]3[C@H](O)[C@@H](O)[C@@H](O[C@H]4[C@H](O)[C@@H](O)[C@@H](O[C@H]5[C@H](O)[C@@H](O)[C@@H](O[C@H]6[C@H](O)[C@@H](O)[C@@H](O[C@H]7[C@H](O)[C@@H](O)[C@@H](O[C@H]1[C@H](O)[C@H]2O)O[C@@H]7CO)O[C@@H]6CO)O[C@@H]5CO)O[C@@H]4CO)O[C@@H]3CO` [α-cyclodextrin] as the compound, how does the “Total daily oral dose may reach” value [12] read?
The value was 6000 mg/day.

And the “Renal toxicity after parenteral administration (in words)” value ([13]; rat, in vivo)?
Its value is “renal toxicity at relatively low doses”.

With `OC[C@H]1O[C@@H]2O[C@H]3[C@H](O)[C@@H](O)[C@@H](O[C@H]4[C@H](O)[C@@H](O)[C@@H](O[C@H]5[C@H](O)[C@@H](O)[C@@H](O[C@H]6[C@H](O)[C@@H](O)[C@@H](O[C@H]7[C@H](O)[C@@H](O)[C@@H](O[C@H]8[C@H](O)[C@@H](O)[C@@H](O[C@H]1[C@H](O)[C@H]2O)O[C@@H]8CO)O[C@@H]7CO)O[C@@H]6CO)O[C@@H]5CO)O[C@@H]4CO)O[C@@H]3CO` [β-cyclodextrin] as the compound, how does the “Total daily oral dose may reach” value [12] read?
Its value is 500 mg/day.

What about the “NOAEL (No Observed Adverse Effect Level)” value [12] of the same compound?
The value was 10 mg/kg/day.

With `OC[C@H]1O[C@@H]2O[C@H]3[C@H](O)[C@@H](O)[C@@H](O[C@H]4[C@H](O)[C@@H](O)[C@@H](O[C@H]5[C@H](O)[C@@H](O)[C@@H](O[C@H]6[C@H](O)[C@@H](O)[C@@H](O[C@H]7[C@H](O)[C@@H](O)[C@@H](O[C@H]8[C@H](O)[C@@H](O)[C@@H](O[C@H]9[C@H](O)[C@@H](O)[C@@H](O[C@H]1[C@H](O)[C@H]2O)O[C@@H]9CO)O[C@@H]8CO)O[C@@H]7CO)O[C@@H]6CO)O[C@@H]5CO)O[C@@H]4CO)O[C@@H]3CO` [γ-cyclodextrin] as the compound, how does the “Total daily oral dose may reach” value [12] read?
Its value is 10,000 mg/day.

And the “NOAEL (No Observed Adverse Effect Level)” value [12]?
The value was 100 mg/kg/day.

And the “Dose showing only reversible vacuolation in the renal tubular epithelium” value ([13]; rats, high doses)?
The value was greater than 600 mg/kg.

Which “Total daily oral dose may reach” value [12] does the source give for HP-β-cyclodextrin here?
The value was 8000 mg/day.

With RM-β-cyclodextrin as the compound, how does the “Renal toxicity after parenteral administration (in words)” value ([13]; parenteral administration) read?
Its value is “renal toxicity at relatively low doses”.
